Results published in ChEMBL document CHEMBL1649565, “Besifloxacin, a novel fluoroquinolone, has broad-spectrum in vitro activity against aerobic and anaerobic bacteria” (Antimicrob Agents Chemother, 2009).
Converted amounts (≈) assume the structure as drawn. The source made the active and inactive calls. The rule behind the calls is not given here.

How the values were obtained:
[1] = tested on: Listeria monocytogenes; experiment: Antibacterial activity against Listeria monocytogenes by CLSI M100-S18 method; format: functional
[2] = tested on: Haemophilus influenzae; experiment: Antibacterial activity against non-ciprofloxacin-susceptible Haemophilus influenzae by CLSI M7-A7 method; format: functional
[3] = tested on: Streptococcus pneumoniae; experiment: Antibacterial activity against non-levofloxacin susceptible Streptococcus pneumoniae by CLSI M100-S18 method; format: functional
[4] = tested on: Streptococcus pneumoniae; experiment: Antibacterial activity against levofloxacin-susceptible Streptococcus pneumoniae by CLSI M100-S18 method; format: functional
[5] = tested on: Haemophilus influenzae; experiment: Antibacterial activity against ciprofloxacin-susceptible Haemophilus influenzae by CLSI M7-A7 method; format: functional
[6] = tested on: Enterococcus faecium; experiment: Antibacterial activity against vancomycin- resistant Enterococcus faecium by CLSI M100-S18 method; format: functional
[7] = tested on: Staphylococcus haemolyticus; experiment: Antibacterial activity against Staphylococcus haemolyticus by CLSI M100-S18 method; format: functional
[8] = tested on: Citrobacter koseri; experiment: Antibacterial activity against Citrobacter koseri assessed as percent susceptible isolates by CLSI M7-A7 method; format: functional
[9] = tested on: Streptococcus constellatus; experiment: Antibacterial activity against Streptococcus constellatus by CLSI M100-S18 method; format: functional
[10] = tested on: Staphylococcus saprophyticus; experiment: Antibacterial activity against Staphylococcus saprophyticus by CLSI M100-S18 method; format: functional
[11] = tested on: Streptococcus agalactiae; experiment: Antibacterial activity against Streptococcus agalactiae by CLSI M100-S18 method; format: functional
[12] = tested on: Streptococcus equinus; experiment: Antibacterial activity against Streptococcus bovis by CLSI M100-S18 method; format: functional
[13] = tested on: Neisseria meningitidis; experiment: Antibacterial activity against Neisseria meningitidis assessed as percent susceptible isolates by CLSI M7-A7 method; format: functional
[14] = tested on: Streptococcus sp.; experiment: Antibacterial activity against Lancefield Streptococcus sp. group F by CLSI M100-S18 method; format: functional
[15] = tested on: Haemophilus influenzae; experiment: Antibacterial activity against ciprofloxacin-susceptible Haemophilus influenzae assessed as percent susceptible isolates by CLSI M7-A7 method; format: functional
[16] = tested on: Legionella pneumophila; experiment: Antibacterial activity against Legionella pneumophila by CLSI M7-A7 method; format: functional
[17] = Antibacterial activity against Lancefield Streptococcus sp. 'group G' by CLSI M100-S18 method; format: functional
[18] = tested on: Staphylococcus aureus; experiment: Antibacterial activity against ciprofloxacin-susceptible and methicillin-resistant Staphylococcus aureus by CLSI M100-S18 method; format: functional
[19] = tested on: Streptococcus intermedius; experiment: Antibacterial activity against Streptococcus intermedius by CLSI M100-S18 method; format: functional
[20] = tested on: Streptococcus oralis; experiment: Antibacterial activity against Streptococcus oralis by CLSI M100-S18 method; format: functional
[21] = tested on: Staphylococcus lugdunensis; experiment: Antibacterial activity against Staphylococcus lugdunensis by CLSI M100-S18 method; format: functional
[22] = tested on: Staphylococcus aureus; experiment: Antibacterial activity against non-ciprofloxacin-susceptible and methicillin-susceptible Staphylococcus aureus by CLSI M100-S18 method; format: functional
[23] = tested on: Streptococcus pyogenes; experiment: Antibacterial activity against Streptococcus pyogenes by CLSI M100-S18 method; format: functional
[24] = tested on: Morganella morganii; experiment: Antibacterial activity against Morganella morganii by CLSI M7-A7 method; format: functional
[25] = tested on: Staphylococcus epidermidis; experiment: Antibacterial activity against non-ciprofloxacin-susceptible and methicillin-susceptible Staphylococcus epidermidis assessed as percent susceptible isolates by CLSI M100-S18 method; format: functional
[26] = tested on: Citrobacter koseri; experiment: Antibacterial activity against Citrobacter koseri by CLSI M7-A7 method; format: functional
[27] = tested on: Haemophilus influenzae; experiment: Antibacterial activity against non-ciprofloxacin-susceptible Haemophilus influenzae assessed as percent susceptible isolates by CLSI M7-A7 method; format: functional
[28] = tested on: Staphylococcus warneri; experiment: Antibacterial activity against Staphylococcus warneri by CLSI M100-S18 method; format: functional
[29] = tested on: Staphylococcus epidermidis
[30] = tested on: Staphylococcus aureus; experiment: Antibacterial activity against non-ciprofloxacin-susceptible and methicillin-susceptible Staphylococcus aureus assessed as percent susceptible isolates by CLSI M100-S18 method; format: functional
[31] = tested on: Klebsiella oxytoca; experiment: Antibacterial activity against Klebsiella oxytoca assessed as percent susceptible isolates by CLSI M7-A7 method; format: functional
[32] = tested on: Staphylococcus aureus; experiment: Antibacterial activity against ciprofloxacin-susceptible and methicillin-resistant Staphylococcus aureus assessed as percent susceptible isolates by CLSI M100-S18 method; format: functional
[33] = tested on: Staphylococcus warneri; experiment: Antibacterial activity against Staphylococcus warneri assessed as percent susceptible isolates by CLSI M100-S18 method; format: functional
[34] = tested on: Staphylococcus hominis; experiment: Antibacterial activity against Staphylococcus hominis by CLSI M100-S18 method; format: functional
[35] = tested on: Staphylococcus epidermidis; experiment: Antibacterial activity against ciprofloxacin-susceptible and methicillin-resistant Staphylococcus epidermidis by CLSI M100-S18 method; format: functional
[36] = tested on: Moraxella catarrhalis; experiment: Antibacterial activity against Moraxella catarrhalis by CLSI M7-A7 method; format: functional
[37] = tested on: Enterococcus faecalis; experiment: Antibacterial activity against vancomycin- resistant Enterococcus faecalis by CLSI M100-S18 method; format: functional
[38] = tested on: Morganella morganii; experiment: Antibacterial activity against Morganella morganii assessed as percent susceptible isolates by CLSI M7-A7 method; format: functional
[39] = tested on: Staphylococcus hominis; experiment: Antibacterial activity against Staphylococcus hominis assessed as percent susceptible isolates by CLSI M100-S18 method; format: functional
[40] = tested on: Klebsiella oxytoca; experiment: Antibacterial activity against Klebsiella oxytoca by CLSI M7-A7 method; format: functional
[41] = tested on: Streptococcus mitis; experiment: Antibacterial activity against Streptococcus mitis by CLSI M100-S18 method; format: functional
[42] = tested on: Streptococcus anginosus; experiment: Antibacterial activity against Streptococcus anginosus by CLSI M100-S18 method; format: functional
[43] = tested on: Staphylococcus epidermidis; remark: listed apart in the source
[44] = tested on: Staphylococcus saprophyticus; experiment: Antibacterial activity against Staphylococcus saprophyticus assessed as percent susceptible isolates by CLSI M100-S18 method; format: functional
[45] = tested on: Streptococcus salivarius; experiment: Antibacterial activity against Streptococcus salivarius by CLSI M100-S18 method; format: functional
[46] = tested on: Staphylococcus haemolyticus; experiment: Antibacterial activity against Staphylococcus haemolyticus assessed as percent susceptible isolates by CLSI M100-S18 method; format: functional
[47] = tested on: Moraxella catarrhalis; experiment: Antibacterial activity against Moraxella catarrhalis assessed as percent susceptible isolates by CLSI M7-A7 method; format: functional
[48] = Antibacterial activity against Lancefield Streptococcus sp. 'group C' by CLSI M100-S18 method; format: functional
[49] = tested on: Streptococcus pneumoniae; experiment: Antibacterial activity against levofloxacin susceptible Streptococcus pneumoniae assessed as percent susceptible isolates by CLSI M100-S18 method; format: functional
[50] = tested on: Streptococcus pneumoniae; experiment: Antibacterial activity against non-levofloxacin susceptible Streptococcus pneumoniae assessed as percent susceptible isolates by CLSI M100-S18 method; format: functional
[51] = tested on: Staphylococcus lugdunensis; experiment: Antibacterial activity against Staphylococcus lugdunensis assessed as percent susceptible isolates by CLSI M100-S18 method; format: functional
[52] = tested on: Neisseria meningitidis; experiment: Antibacterial activity against Neisseria meningitidis by CLSI M7-A7 method; format: functional
[53] = tested on: Staphylococcus epidermidis; experiment: Antibacterial activity against ciprofloxacin-susceptible and methicillin-resistant Staphylococcus epidermidis assessed as percent susceptible isolates by CLSI M100-S18 method; format: functional
[54] = tested on: Streptococcus sanguinis; experiment: Antibacterial activity against Streptococcus sanguinis by CLSI M100-S18 method; format: functional
[55] = tested on: Staphylococcus epidermidis; experiment: Antibacterial activity against non-ciprofloxacin-susceptible and methicillin-susceptible Staphylococcus epidermidis by CLSI M100-S18 method; format: functional

SMILES: CC[C@H]1OC(=O)[C@H](C)[C@@H](O[C@H]2C[C@@](C)(OC)[C@@H](O)[C@H](C)O2)[C@H](C)[C@@H](O[C@@H]2O[C@H](C)C[C@H](N(C)C)[C@H]2O)[C@](C)(O)C[C@@H](C)CN(C)[C@H](C)[C@@H](O)[C@]1(C)O [AZITHROMYCIN]
- MIC50 [1]: 0.5 µg/mL (≈ 0.668 µM)
- MIC90 [1]: 1 µg/mL (≈ 1.34 µM)
- MIC50 [2]: 1 µg/mL (≈ 1.34 µM)
- MIC90 [2]: 8 µg/mL (≈ 10.7 µM)
- MIC50 [3]: 4 µg/mL (≈ 5.34 µM)
- MIC90 [3]: > 64 µg/mL
- MIC50 [4]: 0.06 µg/mL (≈ 0.0801 µM)
- MIC90 [4]: > 64 µg/mL
- MIC50 [5]: 2 µg/mL (≈ 2.67 µM)
- MIC90 [5]: 2 µg/mL (≈ 2.67 µM)
- MIC50 [6]: > 128 µg/mL
- MIC90 [6]: > 128 µg/mL
- MIC50 [7]: > 8 µg/mL
- MIC90 [7]: > 8 µg/mL
- Activity [8]: 99%
- MIC50 [9]: 1 µg/mL (≈ 1.34 µM)
- MIC90 [9]: 1 µg/mL (≈ 1.34 µM)
- MIC50 [10]: 1 µg/mL (≈ 1.34 µM)
- MIC90 [10]: > 8 µg/mL
- MIC50 [11]: 0.5 µg/mL (≈ 0.668 µM)
- MIC90 [11]: 0.5 µg/mL (≈ 0.668 µM)
- MIC50 [12]: 1 µg/mL (≈ 1.34 µM)
- MIC90 [12]: 1 µg/mL (≈ 1.34 µM)
- Activity [13]: 100%
- MIC50 [14]: 0.5 µg/mL (≈ 0.668 µM)
- MIC90 [14]: 0.5 µg/mL (≈ 0.668 µM)
- Activity [15]: 100%
- MIC50 [16]: 0.03 µg/mL (≈ 0.0401 µM)
- MIC90 [16]: 0.03 µg/mL (≈ 0.0401 µM)
- MIC50 [17]: 0.5 µg/mL (≈ 0.668 µM)
- MIC90 [17]: 0.5 µg/mL (≈ 0.668 µM)
- MIC50 [18]: 1 µg/mL (≈ 1.34 µM)
- MIC50 [19]: 1 µg/mL (≈ 1.34 µM)
- MIC90 [19]: 1 µg/mL (≈ 1.34 µM)
- MIC50 [20]: 1 µg/mL (≈ 1.34 µM)
- MIC90 [20]: 1 µg/mL (≈ 1.34 µM)
- MIC50 [21]: > 8 µg/mL
- MIC90 [21]: > 8 µg/mL
- MIC50 [22]: > 8 µg/mL
- MIC90 [22]: > 8 µg/mL
- MIC50 [23]: 0.06 µg/mL (≈ 0.0801 µM)
- MIC90 [23]: 8 µg/mL (≈ 10.7 µM)
- MIC50 [24]: > 8 µg/mL
- MIC90 [24]: > 8 µg/mL
- Activity [25]: 0%
- MIC50 [26]: 8 µg/mL (≈ 10.7 µM)
- MIC90 [26]: > 8 µg/mL
- Activity [27]: 81.8%
- MIC50 [28]: > 8 µg/mL
- MIC90 [28]: > 8 µg/mL
- MIC90 [29]: inactive
- Activity [30]: 18.2%
- Activity [31]: 90%
- Activity [32]: 94.7%
- Activity [33]: 76%
- MIC50 [34]: > 8 µg/mL
- MIC90 [34]: > 8 µg/mL
- MIC [35]: 0.25 µg/mL (≈ 0.334 µM)
- MIC [36]: 0.015 µg/mL (≈ 0.02 µM)
- MIC50 [36]: 0.015 µg/mL (≈ 0.02 µM)
- MIC90 [36]: 0.03 µg/mL (≈ 0.0401 µM)
- MIC50 [37]: > 128 µg/mL
- MIC90 [37]: > 128 µg/mL
- Activity [38]: 76.5%
- Activity [39]: 30%
- MIC50 [40]: > 8 µg/mL
- MIC90 [40]: > 8 µg/mL
- MIC50 [41]: 1 µg/mL (≈ 1.34 µM)
- MIC90 [41]: 1 µg/mL (≈ 1.34 µM)
- MIC50 [42]: 0.06 µg/mL (≈ 0.0801 µM)
- MIC90 [42]: > 8 µg/mL
- MIC90 [43]: inactive
- Activity [44]: 100%
- MIC50 [45]: 1 µg/mL (≈ 1.34 µM)
- MIC90 [45]: 1 µg/mL (≈ 1.34 µM)
- Activity [46]: 39.6%
- Activity [47]: 100%
- MIC50 [48]: 0.5 µg/mL (≈ 0.668 µM)
- MIC90 [48]: 0.5 µg/mL (≈ 0.668 µM)
- Activity [49]: 62.5%
- Activity [50]: 36.5%
- Activity [51]: 66.7%
- MIC50 [52]: 0.06 µg/mL (≈ 0.0801 µM)
- MIC90 [52]: 0.06 µg/mL (≈ 0.0801 µM)
- Activity [53]: 100%
- MIC50 [54]: 1 µg/mL (≈ 1.34 µM)
- MIC90 [54]: 1 µg/mL (≈ 1.34 µM)
- MIC50 [55]: > 8 µg/mL
